Patent US9346786B2, “Pyrrolidine compounds” (Hoffmann-La Roche Inc., priority 2009, dated 2016)
Like-named read-outs stand apart in the source and are kept apart here.

What was measured:
[1] = molecular target: recombinant human NK3 receptor (Homo sapiens (Human), UniProt P29371); assay: biochemical; assay type: binding; conditions: read-out: Data Ki (hNK-3 receptor affinity)
[2] = phase II trial; cited from earlier work
[3] = [3H]SR142801, membranes of HEK293 cells transiently expressing recombinant human NK3 receptor

Chain of recombinant human NK3 receptor (P29371 whole entry): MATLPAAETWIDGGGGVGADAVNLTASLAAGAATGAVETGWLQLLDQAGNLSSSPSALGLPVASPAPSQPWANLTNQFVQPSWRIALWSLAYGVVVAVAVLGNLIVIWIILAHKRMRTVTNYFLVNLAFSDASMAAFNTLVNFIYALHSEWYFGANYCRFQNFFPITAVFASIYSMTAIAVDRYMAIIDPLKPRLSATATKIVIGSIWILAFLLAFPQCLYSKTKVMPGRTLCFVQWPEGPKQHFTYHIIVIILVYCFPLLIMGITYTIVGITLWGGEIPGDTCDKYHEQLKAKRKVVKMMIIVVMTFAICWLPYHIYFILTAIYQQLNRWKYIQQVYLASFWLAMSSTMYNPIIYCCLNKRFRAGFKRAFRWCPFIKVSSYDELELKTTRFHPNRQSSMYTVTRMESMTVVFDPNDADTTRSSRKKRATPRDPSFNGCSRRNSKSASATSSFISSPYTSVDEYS

SMILES | Ki [1, 3] [nM] | further results
CCN(C(=O)Oc1ccc(F)cc1)[C@@H]1CN(C(=O)C2CCN(c3ccc(C(F)(F)F)cn3)CC2)C[C@H]1c1ccc(Cl)c(Cl)c1 [Example 114, [(3S,4R)-4-(3,4-Dichloro-phenyl)-1-(5′-trifluoromethyl-3,4,5,6-tetrahydro-2H-[1,2′]bipyridinyl-4-carbonyl)-pyrrolidin-3-yl]-ethyl-carbamic acid 4-fluoro-phenyl ester] | 1.6 | –
CCN(C(=O)Oc1ccc(F)cc1)[C@@H]1CN(C(=O)C2CCN(c3ccc(C(N)=O)cn3)CC2)C[C@H]1c1ccc(Cl)c(Cl)c1 [Example 115, [(3S,4R)-1-(5′-Carbamoyl-3,4,5,6-tetrahydro-2H-[1,2′]bipyridinyl-4-carbonyl)-4-(3,4-dichloro-phenyl)-pyrrolidin-3-yl]-ethyl-carbamic acid 4-fluoro-phenyl ester] | 0.9 | –
CCN(C(=O)Oc1ccc(F)cc1)[C@@H]1CN(C(=O)C2CCN(c3ccc(C(C)=O)cn3)CC2)C[C@H]1c1ccc(Cl)c(Cl)c1 [Example 116, [(3S,4R)-1-(5′-Acetyl-3,4,5,6-tetrahydro-2H-[1,2′]bipyridinyl-4-carbonyl)-4-(3,4-dichloro-phenyl)-pyrrolidin-3-yl]-ethyl-carbamic acid 4-fluoro-phenyl ester] | 0.5 | –
CCN(C(=O)Oc1ccc(F)cc1)[C@@H]1CN(C(=O)C2CCN(c3ccc(F)cn3)CC2)C[C@H]1c1ccc(F)c(Cl)c1 [Example 117, [(3S,4R)-4-(3-Chloro-4-fluoro-phenyl)-1-(5′-fluoro-3,4,5,6-tetrahydro-2H-[1,2′]bipyridinyl-4-carbonyl)-pyrrolidin-3-yl]-ethyl-carbamic acid 4-fluoro-phenyl ester] | 3.3 | –
CCN(C(=O)Oc1ccc(F)cc1)[C@@H]1CN(C(=O)C2CCN(c3ccc(Cl)cn3)CC2)C[C@H]1c1ccc(F)c(Cl)c1 [Example 118, [(3S,4R)-4-(3-Chloro-4-fluoro-phenyl)-1-(5′-chloro-3,4,5,6-tetrahydro-2H-[1,2′]bipyridinyl-4-carbonyl)-pyrrolidin-3-yl]-ethyl-carbamic acid 4-fluoro-phenyl ester] | 1.8 | –
CCN(C(=O)Oc1ccc(F)cc1)[C@@H]1CN(C(=O)C2CCN(c3ccc(C(F)(F)F)cn3)CC2)C[C@H]1c1ccc(F)c(Cl)c1 [Example 119, [(3S,4R)-4-(3-Chloro-4-fluoro-phenyl)-1-(5′-trifluoromethyl-3,4,5,6-tetrahydro-2H-[1,2′]bipyridinyl-4-carbonyl)-pyrrolidin-3-yl]-ethyl-carbamic acid 4-fluoro-phenyl ester] | – | Ki [1]: 3.7 nM
CCN(C(=O)Oc1ccc(F)cc1)[C@@H]1CN(C(=O)C2CCN(c3ccc(C(C)=O)cn3)CC2)C[C@H]1c1ccc(F)c(Cl)c1 [Example 120, [(3S,4R)-1-(5′-Acetyl-3,4,5,6-tetrahydro-2H-[1,2′]bipyridinyl-4-carbonyl)-4-(3-chloro-4-fluoro-phenyl)-pyrrolidin-3-yl]-ethyl-carbamic acid 4-fluoro-phenyl ester] | 1.7 | –
CCN(C(=O)Oc1ccc(F)cc1)[C@@H]1CN(C(=O)C2CCN(C(=O)[C@@H]3CC(=O)N3)CC2)C[C@H]1c1ccc(Cl)cc1 [Example 121, {(3S,4R)-4-(4-Chloro-phenyl)-1-[1-((S)-4-oxo-azetidine-2-carbonyl)-piperidine-4-carbonyl]-pyrrolidin-3-yl}-ethyl-carbamic acid 4-fluoro-phenyl ester] | 16.9 | –
CCN(CC)CC(=O)c1ccc(N2CCC(C(=O)N3C[C@@H](N(CC)C(=O)Oc4ccc(F)cc4)[C@H](c4ccc(F)cc4)C3)CC2)nc1 [Example 122, [(3S,4R)-1-[5′-(2-Diethylamino-acetyl)-3,4,5,6-tetrahydro-2H-[1,2′]bipyridinyl-4-carbonyl]-4-(4-fluoro-phenyl)-pyrrolidin-3-yl]-ethyl-carbamic acid 4-fluoro-phenyl ester] | 69.6 | –
CC(=O)N(C)C1(c2ccccc2)CCN(CCC[C@]2(c3ccc(Cl)c(Cl)c3)CCCN(C(=O)c3ccccc3)C2)CC1 [SR 142,801, Osanetant] | – | activity on negative symptoms of schizophrenia [2]: inactive in the treatment of negative symptoms; activity on positive symptoms of schizophrenia [2]: active on positive symptoms of schizophrenia
